This passage reports Emax and Activity results from ChEMBL document CHEMBL5321210, “N-adamantyl-anthranil amide derivatives: New selective ligands for the cannabinoid receptor subtype 2 (CB2R)” (Eur J Med Chem, 2023).

The target of test [1] is Cannabinoid receptor 2 (Homo sapiens, UniProt P34972). Description: Agonist activity at human CB2 receptor expressed in CHO-K1 cells assessed as inhibition of NKH-477 induced cAMP production by measuring maximal efficacy incubated for 30 mins by luminescence based analysis relative to control. To be noted: filed as agonist. Format: functional, cell-based.
Test [2] has as its system THP-1. Description: Antiinflammatory activity in human THP-1 monocytes assessed as decrease in TNF-alpha production at 10 uM incubated for 24 hrs by ELISA coupled qRT-PCR analysis relative to control. The class given is functional. Further details: scale not given: the % may be the effect or the level left.
Test [3] deals with THP-1. Description: Antiinflammatory activity in human THP-1 monocytes assessed as decrease in IL-1beta production at 10 uM incubated for 24 hrs by ELISA coupled qRT-PCR analysis relative to control. The class given is functional. Further details: scale not given: the % may be the effect or the level left.
Test [4] has as its system THP-1. As to the kind of experiment: Antiinflammatory activity in human THP-1 monocytes assessed as decrease in IL-6 production at 10 uM incubated for 24 hrs by ELISA coupled qRT-PCR analysis relative to control. Format: functional. Further details: scale not given: the % may be the effect or the level left.
Test [5] has as its system THP-1. As to the kind of experiment: Antiinflammatory activity in human THP-1 monocytes assessed as decrease in IFN-gamma production at 10 uM incubated for 24 hrs by ELISA coupled qRT-PCR analysis relative to control. Format: functional. Further details: scale not given: the % may be the effect or the level left.
The test system of test [6] is THP-1. Description: Antiinflammatory activity against LPS-activated human THP-1 monocytes assessed as decrease in TNF-alpha production at 10 uM incubated for 24 hrs by ELISA coupled qRT-PCR analysis. Format: functional, cell-based.
Test [7] deals with THP-1. Description: Antiinflammatory activity against LPS-activated human THP-1 monocytes assessed as decrease in IFN-gamma production at 10 uM incubated for 24 hrs by ELISA coupled qRT-PCR analysis. Format: functional, cell-based.
Test [8] has as its system THP-1. Description: Antiinflammatory activity against LPS-activated human THP-1 monocytes assessed as decrease in IL-1beta production at 10 uM incubated for 24 hrs by ELISA coupled qRT-PCR analysis. The class given is functional, cell-based.
Test [9] has as its system THP-1. As to the kind of experiment: Antiinflammatory activity against LPS-activated human THP-1 monocytes assessed as decrease in IL-6 production at 10 uM incubated for 24 hrs by ELISA coupled qRT-PCR analysis. Format: functional, cell-based.
The test system of test [10] is THP-1. Description: Antiinflammatory activity against LPS-activated human THP-1 monocytes assessed as increase in IL-4 production at 10 uM incubated for 24 hrs by ELISA coupled qRT-PCR analysis. The class given is functional, cell-based.
Test [11] deals with THP-1. As to the kind of experiment: Antiinflammatory against LPS-activated human THP-1 monocytes assessed as decrease in TNF-alpha production at 1 to 10 uM incubated for 24 hrs in the presence of JTE907 by ELISA coupled qRT-PCR analysis. The class given is functional, cell-based. To be noted: dose 1-10 µM.
The subject of test [12] is THP-1. Description: Antiinflammatory activity in PMA-differentiated human THP-1 macrophages assessed as reduction in TNF-alpha production at 1 to 10 uM incubated for 24 hrs by ELISA coupled qRT-PCR analysis relative to control. Format: functional. Further details: scale not given: the % may be the effect or the level left. To be noted: dose 1-10 µM.
The subject of test [13] is THP-1. As to the kind of experiment: Antiinflammatory activity in PMA-differentiated human THP-1 macrophages assessed as reduction in IFN-gamma production at 1 to 10 uM incubated for 24 hrs by ELISA coupled qRT-PCR analysis relative to control. The class given is functional. Further details: scale not given: the % may be the effect or the level left. The conditions noted are these: dose 1-10 µM.

The test system of test [14] is THP-1. Description: Antiinflammatory activity in PMA-differentiated human THP-1 macrophages assessed as reduction in IL-6 production at 1 to 10 uM incubated for 24 hrs by ELISA coupled qRT-PCR analysis relative to control. The class given is functional. Further details: scale not given: the % may be the effect or the level left. To be noted: dose 1-10 µM.
The test system of test [15] is THP-1. Description: Antiinflammatory activity in PMA-differentiated human THP-1 macrophages assessed as increase in IL-4 production at 1 to 10 uM incubated for 24 hrs by ELISA coupled qRT-PCR analysis. To be noted: dose 1-10 µM. The class given is functional, cell-based.
Test [16] has as its system THP-1. Description: Antiinflammatory activity against LPS-activated PMA-differentiated human THP-1 macrophages assessed as increase in IL-4 production at 1 to 10 uM incubated for 24 hrs by ELISA coupled qRT-PCR analysis. Format: functional, cell-based. The conditions noted are these: dose 1-10 µM.
The test system of test [17] is THP-1. As to the kind of experiment: Antiinflammatory activity in PMA-differentiated human THP-1 macrophages assessed as decrease in IL-6 production at 1 to 10 uM incubated for 24 hrs in the presence of JTE907 by ELISA coupled qRT-PCR analysis. The conditions noted are these: dose 1-10 µM. The class given is functional, cell-based.
Test [18] concerns THP-1. As to the kind of experiment: Antiinflammatory activity in PMA-differentiated human THP-1 macrophages assessed as decrease in IFN-gamma production at 1 to 10 uM incubated for 24 hrs in the presence of JTE907 by ELISA coupled qRT-PCR analysis. The class given is functional, cell-based. The conditions noted are these: dose 1-10 µM.
Test [19] deals with THP-1. As to the kind of experiment: Antiinflammatory activity against LPS-activated human THP-1 monocytes assessed as increase in IL-10 production at 10 uM incubated for 24 hrs by ELISA coupled qRT-PCR analysis. Format: functional, cell-based.
Test [20] deals with THP-1. Description: Antiinflammatory activity in human THP-1 monocytes assessed as decrease in IL-1beta production at 10 uM incubated for 24 hrs in the presence of JTE907 by ELISA coupled qRT-PCR analysis. Format: functional, cell-based.
Test [21] has as its system THP-1. As to the kind of experiment: Antiinflammatory activity in human THP-1 monocytes assessed as increase in IL-4 production at 10 uM incubated for 24 hrs in the presence of JTE907 by ELISA coupled qRT-PCR analysis. Format: functional, cell-based.
Test [22] deals with THP-1. As to the kind of experiment: Antiinflammatory activity in PMA-differentiated human THP-1 macrophages assessed as increase in IL-10 production at 10 uM incubated for 24 hrs by ELISA coupled qRT-PCR analysis. Format: functional, cell-based.
The test system of test [23] is THP-1. As to the kind of experiment: Antiinflammatory activity in LPS-activated PMA-differentiated human THP-1 macrophages assessed as decrease in IFN-gamma production at 10 uM incubated for 24 hrs in the presence of JTE907 by ELISA coupled qRT-PCR analysis. Format: functional, cell-based.
For test [24], the system named is THP-1. Description: Antiinflammatory activity in human THP-1 monocytes assessed as decrease in IL-6 production at 10 uM incubated for 24 hrs in the presence of N-(adamantan-1-yl)-4-(pentylamino)-[1,1'-biphenyl]-3-carboxamide by ELISA coupled qRT-PCR analysis. The class given is functional, cell-based.
Test [25] relates to THP-1. Description: Antiinflammatory activity against LPS-activated human THP-1 monocytes assessed as decrease in IL-6 production at 10 uM incubated for 24 hrs in the presence of N-(adamantan-1-yl)-4-(pentylamino)-[1,1'-biphenyl]-3-carboxamide by ELISA coupled qRT-PCR analysis. The class given is functional, cell-based.
Test [26] relates to THP-1. Description: Antiinflammatory activity against LPS-activated human THP-1 monocytes assessed as decrease in IFN-gamma production at 10 uM incubated for 24 hrs in the presence of N-(adamantan-1-yl)-4-(pentylamino)-[1,1'-biphenyl]-3-carboxamide by ELISA coupled qRT-PCR analysis. The class given is functional, cell-based.
Test [27] relates to THP-1. As to the kind of experiment: Antiinflammatory activity in PMA-differentiated human THP-1 monocytes assessed as decrease in IL-6 production at 10 uM incubated for 24 hrs in the presence of N-(adamantan-1-yl)-4-(pentylamino)-[1,1'-biphenyl]-3-carboxamide by ELISA coupled qRT-PCR analysis. The class given is functional, cell-based.
The test system of test [28] is THP-1. As to the kind of experiment: Antiinflammatory activity against LPS-activated PMA-differentiated human THP-1 monocytes assessed as decrease in IL-6 production at 10 uM incubated for 24 hrs in the presence of N-(adamantan-1-yl)-4-(pentylamino)-[1,1'-biphenyl]-3-carboxamide by ELISA coupled qRT-PCR analysis. The class given is functional, cell-based.
For test [29], the system named is THP-1. Description: Antiinflammatory activity against LPS-activated PMA-differentiated human THP-1 monocytes assessed as decrease in TNF-alpha production at 10 uM incubated for 24 hrs in the presence of N-(adamantan-1-yl)-4-(pentylamino)-[1,1'-biphenyl]-3-carboxamide by ELISA coupled qRT-PCR analysis. Format: functional, cell-based.

Structures are written as SMILES. The source made the active and inactive calls. The rule behind the calls is not given here.

Cannabinoid receptor 2, sequence (P34972 whole entry): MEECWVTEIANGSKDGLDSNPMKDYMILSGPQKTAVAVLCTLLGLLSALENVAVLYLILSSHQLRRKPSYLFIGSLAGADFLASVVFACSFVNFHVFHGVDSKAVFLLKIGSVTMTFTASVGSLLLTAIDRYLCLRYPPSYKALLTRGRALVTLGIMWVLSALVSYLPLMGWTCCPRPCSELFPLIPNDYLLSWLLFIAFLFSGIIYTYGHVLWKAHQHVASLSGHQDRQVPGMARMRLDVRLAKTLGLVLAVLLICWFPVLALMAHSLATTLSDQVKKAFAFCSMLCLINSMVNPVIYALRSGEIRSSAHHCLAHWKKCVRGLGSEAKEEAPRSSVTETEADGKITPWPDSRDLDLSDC

Take `CCCCCNc1ccccc1C(=O)NC12CC3CC(CC(C3)C1)C2`: the Emax in test [1] came to 77.2%. Further, the Activity turned out to be 50% in [2]; 50% in test [3]; 40% in test [4]; 50% in [5]; 50% in test [12]; 50% in [13]. The Activity in test [14] worked out at 50%. Also, the result in test [6], in [7], in [8], in test [9], in [10] and in test [15] was Active. For the same compound, the result in test [16] and in test [19] was Active. Moreover, the outcome in test [11], in test [17] and in test [18] was inactive.
Turning to `O=C(NC1CCCCC1)c1cn(CCN2CCOCC2)c2cc(Cl)ccc2c1=O`, the Activity in test [2] stood at 60%; in test [3], 60%; in [4] it was 60%; in [5] it was 40%. Also, the result in test [6], in test [7], in test [8], in test [9], in [10] and in test [22] was Active. Also, in test [19], the result was Active. For the same compound, the outcome in [20], in test [21], in [23], in test [24], in test [25] and in [26] was inactive. Besides, the result in [27], in test [28] and in test [29] was inactive.
